Test results reported in the NIST ThermoML archive (doi:10.1021/je101008y).
Numbers after ± are expanded uncertainties.

Experiment: activity coefficient (dimensionless); of the first substance listed, at infinite dilution; xn = mol fraction of the nth substance listed
Settings: Liquid, Chromatography, x1 = 0

Row | activity coefficient (318.15 K) | activity coefficient (328.15 K) | activity coefficient (338.15 K) | activity coefficient (348.15 K) | activity coefficient (358.15 K) | activity coefficient (318.2 K) | activity coefficient (328.2 K) | activity coefficient (338.2 K) | activity coefficient (348.2 K) | activity coefficient (358.2 K) | Compound
1 | 333 ± 23 | 293 ± 20 | 267 ± 18 | 234 ± 16 | 214 ± 15 | – | – | – | – | – | CCCCCCCCC [nonane] + CCCC[N+]1(C)CCCCC1.N#C[S-]
2 | 5.18 ± 0.35 | 5.18 ± 0.35 | 5.16 ± 0.35 | 5.15 ± 0.35 | 5.14 ± 0.35 | – | – | – | – | – | CCc1ccccc1 [ethylbenzene] + CCCC[N+]1(C)CCCCC1.N#C[S-]
3 | – | 0.332 ± 0.032 | 0.337 ± 0.032 | 0.342 ± 0.032 | 0.348 ± 0.032 | – | – | – | – | – | O [water] + CCCC[N+]1(C)CCCCC1.N#C[S-]
4 | 170 ± 12 | 142 ± 10 | 127 ± 9 | 111 ± 8 | 102 ± 7 | – | – | – | – | – | CCCCCCC [heptane] + CCCC[N+]1(C)CCCCC1.N#C[S-]
5 | 90.6 ± 6.2 | 83.7 ± 5.7 | 77.4 ± 5.3 | 71.5 ± 4.9 | 67.4 ± 4.6 | – | – | – | – | – | C=CCCCCCC [oct-1-ene] + CCCC[N+]1(C)CCCCC1.N#C[S-]
6 | 41.3 ± 2.8 | 37 ± 3 | 34.6 ± 2.4 | 32 ± 2 | 30.1 ± 2.1 | – | – | – | – | – | C=CCCCC [hex-1-ene] + CCCC[N+]1(C)CCCCC1.N#C[S-]
7 | 124 ± 9 | 104 ± 7 | 89.3 ± 6.1 | 78.5 ± 5.4 | 68.5 ± 4.7 | – | – | – | – | – | CCCCCC [hexane] + CCCC[N+]1(C)CCCCC1.N#C[S-]
8 | – | – | – | – | – | 3.08 ± 0.21 | 3.09 ± 0.21 | 3.11 ± 0.21 | 3.12 ± 0.21 | 3.13 ± 0.21 | CCC(=O)CC [pentan-3-one] + CCCC[N+]1(C)CCCCC1.N#C[S-]
9 | 2.28 ± 0.16 | 2.31 ± 0.16 | 2.34 ± 0.16 | 2.36 ± 0.16 | 2.38 ± 0.16 | – | – | – | – | – | C1CCOC1 [tetrahydrofuran] + CCCC[N+]1(C)CCCCC1.N#C[S-]
10 | 236 ± 16 | 206 ± 14 | 185 ± 13 | 161 ± 11 | 150 ± 10 | – | – | – | – | – | CCCCCCCC [octane] + CCCC[N+]1(C)CCCCC1.N#C[S-]
11 | 1.1 ± 0.07 | 1.13 ± 0.07 | 1.17 ± 0.07 | 1.2 ± 0.08 | 1.23 ± 0.08 | – | – | – | – | – | c1ccsc1 [thiophene] + CCCC[N+]1(C)CCCCC1.N#C[S-]
12 | 0.366 ± 0.033 | 0.368 ± 0.033 | 0.37 ± 0.033 | 0.371 ± 0.033 | 0.373 ± 0.033 | – | – | – | – | – | CO [methanol] + CCCC[N+]1(C)CCCCC1.N#C[S-]
13 | – | – | – | – | – | 3.07 ± 0.21 | 3.08 ± 0.21 | 3.09 ± 0.21 | 3.11 ± 0.21 | 3.12 ± 0.21 | CCCC(C)=O [pentan-2-one] + CCCC[N+]1(C)CCCCC1.N#C[S-]

The next lines start with the compound.

Row | Compound | activity coefficient (318.15 K) | activity coefficient (328.15 K) | activity coefficient (338.15 K) | activity coefficient (348.15 K) | activity coefficient (358.15 K) | activity coefficient (318.2 K) | activity coefficient (328.2 K) | activity coefficient (338.2 K) | activity coefficient (348.2 K) | activity coefficient (358.2 K)
14 | CC(C)=O [acetone] + CCCC[N+]1(C)CCCCC1.N#C[S-] | – | – | – | – | – | 1.52 ± 0.1 | 1.52 ± 0.1 | 1.53 ± 0.1 | 1.54 ± 0.1 | 1.55 ± 0.1
15 | COC(C)(C)C [2-methoxy-2-methylpropane] + CCCC[N+]1(C)CCCCC1.N#C[S-] | – | – | – | – | – | 13.1 ± 0.9 | 12.7 ± 0.9 | 12.4 ± 0.8 | 12 ± 0.8 | 11.8 ± 0.8
16 | C1CCCCC1 [cyclohexane] + CCCC[N+]1(C)CCCCC1.N#C[S-] | 39.8 ± 2.7 | 35.9 ± 2.5 | 32.4 ± 2.2 | 29.4 ± 2 | 27.5 ± 1.9 | – | – | – | – | –
17 | Cc1ccc(C)cc1 [1,4-dimethylbenzene] + CCCC[N+]1(C)CCCCC1.N#C[S-] | 5.01 ± 0.34 | 5.04 ± 0.34 | 5.07 ± 0.35 | 5.1 ± 0.35 | 5.13 ± 0.35 | – | – | – | – | –
18 | C#CCCCCC [1-heptyne] + CCCC[N+]1(C)CCCCC1.N#C[S-] | 9.17 ± 0.63 | 9.19 ± 0.63 | 9.2 ± 0.6 | 9.23 ± 0.63 | 9.28 ± 0.63 | – | – | – | – | –
19 | C1CCCC1 [cyclopentane] + CCCC[N+]1(C)CCCCC1.N#C[S-] | 27.5 ± 1.9 | 24.2 ± 1.7 | 22.1 ± 1.5 | 19.9 ± 1.4 | 18.9 ± 1.3 | – | – | – | – | –
20 | Cc1ccccc1C [1,2-dimethylbenzene] + CCCC[N+]1(C)CCCCC1.N#C[S-] | 4.15 ± 0.28 | 4.18 ± 0.28 | 4.21 ± 0.29 | 4.24 ± 0.29 | 4.26 ± 0.29 | – | – | – | – | –
21 | C#CCCCCCC [1-octyne] + CCCC[N+]1(C)CCCCC1.N#C[S-] | 13.6 ± 0.9 | 13.6 ± 0.9 | 13.6 ± 0.9 | 13.7 ± 0.9 | 13.7 ± 0.9 | – | – | – | – | –
22 | CCOCC [diethyl ether] + CCCC[N+]1(C)CCCCC1.N#C[S-] | – | – | – | – | – | 12 ± 0.8 | 11.6 ± 0.8 | 11.1 ± 0.8 | 10.8 ± 0.7 | 10.5 ± 0.7
23 | Cc1cccc(C)c1 [1,3-dimethylbenzene] + CCCC[N+]1(C)CCCCC1.N#C[S-] | 5.23 ± 0.36 | 5.25 ± 0.36 | 5.26 ± 0.36 | 5.27 ± 0.36 | 5.28 ± 0.36 | – | – | – | – | –
24 | Cc1ccccc1 [toluene] + CCCC[N+]1(C)CCCCC1.N#C[S-] | 3.14 ± 0.21 | 3.16 ± 0.22 | 3.19 ± 0.22 | 3.21 ± 0.22 | 3.23 ± 0.22 | – | – | – | – | –
25 | CCCOCCC [dipropyl ether] + CCCC[N+]1(C)CCCCC1.N#C[S-] | – | – | – | – | – | 35.1 ± 2.4 | 32.9 ± 2.3 | 31 ± 2.1 | 29.3 ± 2 | 28 ± 1.9
26 | CCCCCCCCCC [decane] + CCCC[N+]1(C)CCCCC1.N#C[S-] | 487 ± 34 | 433 ± 30 | 390 ± 27 | 342 ± 24 | 311 ± 21 | – | – | – | – | –
27 | C1CCCCCC1 [cycloheptane] + CCCC[N+]1(C)CCCCC1.N#C[S-] | 44.3 ± 3 | 41.5 ± 2.8 | 37.4 ± 2.6 | 34.6 ± 2.4 | 32.7 ± 2.2 | – | – | – | – | –
28 | C#CCCCC [1-hexyne] + CCCC[N+]1(C)CCCCC1.N#C[S-] | 6.07 ± 0.41 | 6.11 ± 0.42 | 6.16 ± 0.42 | 6.19 ± 0.42 | 6.22 ± 0.42 | – | – | – | – | –
29 | CCO [ethanol] + CCCC[N+]1(C)CCCCC1.N#C[S-] | 0.647 ± 0.044 | 0.637 ± 0.044 | 0.627 ± 0.043 | 0.618 ± 0.043 | 0.612 ± 0.043 | – | – | – | – | –
30 | C1CCCCCCC1 [cyclooctane] + CCCC[N+]1(C)CCCCC1.N#C[S-] | 60 ± 4 | 54 ± 4 | 49.1 ± 3.4 | 44.7 ± 3.1 | 42.1 ± 2.9 | – | – | – | – | –
31 | C=CCCCCC [1-heptene] + CCCC[N+]1(C)CCCCC1.N#C[S-] | 60.3 ± 4.1 | 55.5 ± 3.8 | 51.7 ± 3.5 | 47.9 ± 3.3 | 45.7 ± 3.1 | – | – | – | – | –
32 | c1ccccc1 [benzene] + CCCC[N+]1(C)CCCCC1.N#C[S-] | 1.9 ± 0.13 | 1.92 ± 0.13 | 1.95 ± 0.13 | 1.97 ± 0.13 | 1.99 ± 0.14 | – | – | – | – | –
